Source: patent US4882272A, “High molecular weight kininogen assay” (Temple University - of the Commonwealth System of Higher …, priority 1987, dated 1989)
Peptide text beside a SMILES is read from it.

Target: T1, human factor XIa (Homo sapiens, UniProt P03951)
T1 construct: converted to the active enzyme factor XIa by factor XIIa
Experiment: Hydrolysis of chromogenic substrate S-2366 by factor XIa
Type: biochemical
Experimental: According to one embodiment, a chromogenic substrate for factor XIa is incubated with the assay reaction mixture. The substrate should, under the conditions of the assay, be capable of hydrolysis by factor XIa to yield a hydrolysis product whose appearance may be monitored spectrophotometrically or by a microplate reader. Such substrates include, for example, L-pyroglutamyl-L-prolyl-L-arginine-p-nitroanilide and H-D-leucylthreonyl-arginine-p-nitroanilide, available from KabiVitrum in hydrochloride form as "S-2366" and "S-2511", respectively. The enzymatic activity of factor XIa catalyzes the hydrolysis of the peptide-p-nitroanilide bond, releasing the chromophore p-nitroaniline. The appearance of p-nitroaniline may be measured spectrophotometrically after a fixed hydrolysis time, at 405 nm. The change in absorbance is proportional to the enzyme activity.
S-2366 is the preferred substrate.

T1 sequence (P03951 388-625 limits assumed): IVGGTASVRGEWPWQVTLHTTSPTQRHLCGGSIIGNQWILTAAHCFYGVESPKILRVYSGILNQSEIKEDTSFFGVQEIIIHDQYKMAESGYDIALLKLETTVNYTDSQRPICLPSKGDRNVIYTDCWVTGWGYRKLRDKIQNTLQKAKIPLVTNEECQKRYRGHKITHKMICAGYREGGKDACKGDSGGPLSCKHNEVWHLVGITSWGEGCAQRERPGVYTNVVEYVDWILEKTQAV
T1 sequence (P03951 19-387 partner limits assumed): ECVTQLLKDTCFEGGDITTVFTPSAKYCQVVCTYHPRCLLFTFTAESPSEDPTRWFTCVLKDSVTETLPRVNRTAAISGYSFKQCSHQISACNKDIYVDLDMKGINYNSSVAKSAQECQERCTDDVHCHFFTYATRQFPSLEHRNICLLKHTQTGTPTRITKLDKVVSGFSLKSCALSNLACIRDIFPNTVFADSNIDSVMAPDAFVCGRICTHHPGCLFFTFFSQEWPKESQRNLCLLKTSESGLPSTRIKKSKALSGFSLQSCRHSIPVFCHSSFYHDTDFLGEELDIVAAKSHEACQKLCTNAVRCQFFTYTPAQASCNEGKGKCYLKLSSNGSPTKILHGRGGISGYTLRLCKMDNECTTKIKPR

Q: Which “Kcat to Km ratio” value does the source give for `N=C(N)NCCC[C@H](NC(=O)[C@@H]1CCCN1C(=O)[C@@H]1CCC(=O)N1)C(=O)Nc1ccc([N+](=O)[O-])cc1` [S-2366, L-pyroglutamyl-L-prolyl-L-arginine-p-nitroanilide] (HELM PEPTIDE1{[Glp].P.R.[O=[N+]([O-])c1ccc(N[*:1])cc1]}$$$$V2.0) here?
A: Its value is 5.5e+06 M⁻¹ s⁻¹.
